Data published in patent US20220016241A1, “COMPOSITIONS AND METHODS FOR REDUCING ANTIGEN-SPECIFIC IMMUNOGENICITY” (The Research Foundation for The State University of New York, priority 2013, published 2022).

What was measured:
[1] = Rituximab pharmacokinetics after iv and sc administration in isotonic and hypertonic buffers; type: in vivo, SW mice
Experimental: Preparation and characterization of injection buffers: One isotonic and six different hypertonic TRIS buffers were prepared to investigate the effects of hypertonicity and buffer composition on rituximab lymphatic uptake and plasma exposure (Table 1.).
Isotonic TRIS buffer was prepared using 25 mM TRIS and 150 mM NaCl (Buffer A). Hypertonic (600 mmol/kg) TRIS buffers were prepared with 25 mM of TRIS containing 300 mM NaCl (Buffer B). Buffers “C” and “E” contained NaCl as well as 20 mM of OPLS or Mannitol. To further delineate the effects of buffer composition on lymphatic uptake, we prepared two buffers at 600 mmol/kg with a 270 mM of OPLS (Buffer D) or mannitol (Buffer F). […] Osmolarity was measured using a 5500 Vapor Pressure Osmometer (Wescore Inc. Logen, Utah, USA) according to manufacturer's instruction.
Rituximab pharmacokinetics studies: 126 male SW mice were divided into 7 groups. […] The disposition of RXT will be determined from the iv PK profile and convoluted with the absorption data generated from the sc studies. […] Immediately before analysis; the inguinal lymph nodes were homogenized in 300 μl of PBS on ice and then analyzed.
Analysis of RXT in plasma and lymph node samples: Analysis of plasma and lymph node samples from PK studies was done with a standard ELISA. […] Optical density at 450 nm was measured using a plate reader.

anti-GAA antibody titers = assay: Effect of OPLS on immunogenicity of GAA protein; type: in vivo, mice; conditions: 5 mg dose with 1 μg GAA, 4 weekly s.c., 2 week rest
Experimental: Materials and Methods: GAA Source: Full length recombinant rhGAA was produced in Human Kidney Embryo Cells for our use by Creative Biomart (Shirley, N.Y.); OPLS Source: Sigma-Aldrich (St. Louis, Mo.). n=8 animals/group were immunized with 4 weekly s.c. injections of 1 μg of GAA in 100 μl of either sterile TRIS for the free group or in 5 mg OPLS in sterile TRIS for the OPLS-GAA group. A group of 8 mice will receive the same dose of CBrhGAA in 5 mg O-phospho-D-serine (OPDS) solution as a negative control. After a 2 week rest period, a blood sample from the saphenous vein will be collected. Samples were stored at −80° C. until analysis. These samples were then analyzed for anti-GAA Ab titers. Anti-GAA antibody titers were measured as follows: ELISA plate (maxisorp, NUNC) was coated with 50 μl of 5 μg/ml of sterile rhGAA in sodium carbonate-bicarbonate buffer pH =9.6. The plate was incubated overnight at 4° C. The plate was washed six times with PBS containing 0.05% Tween 20 (PBS-T, 250 μl/well) using an automated plate washer. The plate was blocked with PBS containing 1% BSA (300 μl/well) as the block buffer for 2 hr at 37° C. […] The reaction was stopped with 2 N sulfuric acid and read immediately at 450 nm using a micro-plate reader. The titer values are quantitated using a statistical endpoint method as described by Frey et al. Control plasma samples were run on each plate. […]

[2] = tested on: anti-FVIII antibody titers; assay: FVIII-specific tolerance with OPLS, OPDS or Dex, rechallenge with free FVIII (FIG. 11); conditions: s.c. co-administration with FVIII, then s.c. free FVIII
anti-GAA total titers = assay: OPLS-GAA sequential administration study; type: in vivo, Mice
Experimental: This examples describes OPLS-GAA sequential administration study. To determine if OPLS can exert its immunomodulatory effects on the immune response to GAA when the two are administered in separate spaced injections, at the same injection site the following experiments were carried out. Mice (n=6 animals/group) were immunized with 4 weekly sc injections as follows. One group of animals received one single combined injection of 5 mg OPLS and 1 μg rhGAA(100 μl volume). Recombinant human GAA was produced by Creative Biomart. The second group received one injection of 5 mg OPLS (100 μl volume) then after a 5 minute wait they received a second injection of 1 μg rhGAA in sterile TRIS (100 μl volume) in the same injection site. The final control group received one injection of sterile TRIS (100 μl volume) then after a 5 minute wait they received a second injection of 1 μg rhGAA in sterile TRIS (100 μl volume) in the same injection site. After a two week rest period a saphenous blood sample was collected. All of the mice were then rechallenged with 4 weekly injections of 1 μg of rhGAA in 100 μl sterile TRIS (one single injection). Analysis was done by ELISA for total titers. The mean free GAA after 6 weeks was 3135±910, When co-administered, the GAA was 787±155, and when administered separately (sequentially), the GAA was 926±202 (FIG. 26). After re-challenge, terminal sampling was done at week 11. The mean free GAA after 11 weeks was 8775±2363, When co-administered, the GAA was 895±335, and when administered separately (sequentially), the GAA was 1884±761. […] Either administration method was able to induce a hypo-responsiveness towards GAA.

rituximab: Commercial preparation of rituximab (RXT)
sc bioavailability of rituximab ([1]; 1 μg/g in isotonic Buffer A): 0.29 | Fraction of the dose taken up by the lymph nodes ([1]; 1 μg/g sc in isotonic Buffer A, estimated): 0.05

N[C@H](COP(=O)(O)O)C(=O)O [OPDS, O-Phospho-D-Serine, reference compound]
Anti-GAA antibody titers vs GAA alone (anti-GAA antibody titers): lower | FVIII-specific hypo-responsiveness upon rechallenge [2]: did not

free GAA: Full length recombinant rhGAA produced in Human Kidney Embryo Cells by Creative Biomart
Total titers (ELISA), week 11 after re-challenge (anti-GAA total titers; control group, rechallenge 4 weekly 1 μg rhGAA): 8775±2363 | Total titers (ELISA), week 6 (anti-GAA total titers; control: TRIS then 1 μg rhGAA 5 min later, same site, 4 weekly sc): 3135±910
